Measured values published in US5436229A, “Bisulfite adducts of arginine aldehydes” (Eli Lilly and Company, priority 1994, dated 1995).

Assays:
Assay type in all cases: biochemical
[1] = target: human thrombin (Homo sapiens, UniProt P00734); test: Thrombin amidase inhibition (Kass), chromogenic substrate
Procedure: The assay is carried out by mixing 50 μl buffer (0.03M Tris, 0.15M NaCl, pH 7.4) with 25 μl of human thrombin solution (purified human thrombin, Enzyme Research Laboratories, South Bend, Ind., at 8 NIH units/ml) and 25 μl of test compound in a solvent (50% aqueous methanol (v:v)). Then 150 μl of an aqueous solution of the chromogenic substate (at 0.25 mg/ml) are added and the rates of hydrolysis of the substrate are measured by monitoring the reactions at 405 nm for the release of p-nitroaniline. Standard curves are constructed by plotting free thrombin concentration against hydrolysis rate. […] The amount of free inhibitor in each assay is calculated by subtracting the number of moles of bound thrombin from the number of moles of added inhibitor (test compound).
The Kass value is the hypothetical equilibrium constant for the reaction between thrombin and the test compound (I) . [formula]
Kass is calculated for a range of concentrations of test compounds and the mean value reported in units of liter per mole.

[2] = target: T1, factor Xa (Homo sapiens, UniProt P00742); test: Serine protease inhibition (Kass), factor Xa
T1 construct: Human factors X, Xa, IXa, XIa, and XIIa are purchased from Enzyme Research Laboratories; purchased Enzyme Research Laboratories, South Bend, Ind
T1 sequence (P00742 235-488 limits assumed): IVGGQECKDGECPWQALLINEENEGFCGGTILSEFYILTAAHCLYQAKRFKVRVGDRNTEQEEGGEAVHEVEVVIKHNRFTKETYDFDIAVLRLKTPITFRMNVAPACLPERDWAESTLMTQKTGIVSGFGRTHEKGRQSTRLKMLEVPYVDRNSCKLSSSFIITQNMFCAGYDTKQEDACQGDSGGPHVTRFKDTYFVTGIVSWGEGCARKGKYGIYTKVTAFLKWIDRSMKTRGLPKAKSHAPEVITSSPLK
T1 sequence (P00742 41-179 partner limits assumed): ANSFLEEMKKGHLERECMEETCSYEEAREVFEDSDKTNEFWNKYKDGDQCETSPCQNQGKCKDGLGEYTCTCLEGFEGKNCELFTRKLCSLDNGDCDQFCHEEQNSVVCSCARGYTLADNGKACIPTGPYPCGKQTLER
Procedure: (§1) By substantially following the procedures described above for human thrombin, and using other human blood coagulation system serine proteases and using fibrinolytic system serine proteases, with the appropriate chromogenic substrates, identified below, the selectivity of the compounds of the present invention with respect to the coagulation factor serine proteases and to the fibronolytic serine proteases are evaluated as well as their substantial lack of interference with human plasma clot fibrinolysis.
(§2) Human factors X, Xa, IXa, XIa, and XIIa are purchased from Enzyme Research Laboratories, South Bend, Ind.; human urokinase from Leo Pharmaceuticals, Denmark; and recombinant activated Protein C (aPC) is prepared at Eli Lilly and Co. substantially according to U.S. Pat. No. 4,981,952 incorporated by reference herein in its entirety. Chromogenic substrates: N-Benzoyl-Ile-Glu-Gly-Arg-p-nitroanilide (for factor Xa); N-Cbz-D-Arg-Gly-Arg-p-nitroanilide (for factor IXa assay as the factor Xa substrate); Pyroglutamyl-Pro-Arg-p-nitroanilide (for Factor XIa and for aPC); H-D-Pro-Phe-Arg-p-nitroanilide (for factor XIIa); and Pyroglutamyl-Gly-Arg-p-nitroanilide (for urokinase); are purchased from KabiVitrum, Stockholm, Sweden, or from Midwest Biotech, Fishers, Ind. Bovine trypsin is purchased from Worthington Biochemicals, Freehold, N.J., and human plasma kallikrein from Kabi Vitrum, Stockholm, Sweden. Chromogenic substrate H-D-Pro-Phe-Arg-p-nitroanilide for plasma kallikrein is purchased from Kabi Vitrum, Stockholm, Sweden. N-Benzoyl-Phe-Val-Arg-p-nitroanilide, the substrate for human thrombin and for trypsin, is synthesized according to procedures described above for the compounds of the present invention, using known methods of peptide coupling from commercially available reactants, or purchaed from Midwest Biotech, Fishers, Ind.

[3] = target: T2, Bovine trypsin (Bos taurus, UniProt P00760); test: Serine protease inhibition (Kass), trypsin
T2 construct: Bovine trypsin is purchased from Worthington Biochemicals; purchased Worthington Biochemicals, Freehold, N.J
T2 sequence (P00760 24-246): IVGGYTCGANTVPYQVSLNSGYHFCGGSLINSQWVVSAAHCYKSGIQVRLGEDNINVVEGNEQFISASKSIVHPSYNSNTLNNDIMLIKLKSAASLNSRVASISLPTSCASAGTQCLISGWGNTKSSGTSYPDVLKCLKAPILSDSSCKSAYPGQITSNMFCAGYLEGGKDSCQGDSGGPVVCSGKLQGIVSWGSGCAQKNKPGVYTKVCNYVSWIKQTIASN
Procedure: as §1, §2

[4] = target: T3, Human plasmin (Homo sapiens, UniProt P00747); test: Serine protease inhibition (Kass), plasmin
T3 construct: Human plasmin is purchased from Boehringer Mannheim; purchased Boehringer Mannheim, Indianapolis, Ind
T3 sequence (P00747 581-810 limits assumed): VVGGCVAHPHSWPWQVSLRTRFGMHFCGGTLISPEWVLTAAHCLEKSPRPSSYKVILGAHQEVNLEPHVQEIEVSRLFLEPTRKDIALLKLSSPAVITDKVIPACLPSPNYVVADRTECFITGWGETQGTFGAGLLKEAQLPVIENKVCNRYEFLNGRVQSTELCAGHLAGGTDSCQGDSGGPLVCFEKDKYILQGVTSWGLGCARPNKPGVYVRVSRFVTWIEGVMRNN
T3 sequence (P00747 97-580 partner limits assumed): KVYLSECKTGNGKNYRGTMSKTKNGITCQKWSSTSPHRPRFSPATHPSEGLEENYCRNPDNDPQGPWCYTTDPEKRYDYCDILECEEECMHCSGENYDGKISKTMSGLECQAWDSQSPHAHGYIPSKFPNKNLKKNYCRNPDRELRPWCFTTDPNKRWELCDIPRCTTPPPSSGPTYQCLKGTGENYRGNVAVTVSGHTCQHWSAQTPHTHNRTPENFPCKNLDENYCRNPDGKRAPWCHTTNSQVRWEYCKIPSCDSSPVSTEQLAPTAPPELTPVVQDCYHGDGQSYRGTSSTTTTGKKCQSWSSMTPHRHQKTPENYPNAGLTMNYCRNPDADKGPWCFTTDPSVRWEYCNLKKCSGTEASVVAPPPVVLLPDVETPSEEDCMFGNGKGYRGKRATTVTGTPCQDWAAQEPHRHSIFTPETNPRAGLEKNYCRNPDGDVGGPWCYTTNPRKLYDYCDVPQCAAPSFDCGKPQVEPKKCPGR
Procedure: as §1
(§3) Human plasmin is purchased from Boehringer Mannheim, Indianapolis, Ind.; nt-PA is purchased as single chain activity reference from American Diagnostica, Greenwich, Conn.; modified-t-PA6 (mt-PA6) is prepared at Eli Lilly and Company by procedure known in the art (See, Burck, et al., J. Biol. Chem., 265, […] (1990). Plasmin chromogenic substrate H-D-Val-Leu-Lys-p-nitroanilide and tissue plasminogen activator (t-PA) substrate H-D-Ile-Pro-Arg-p-nitroanilide are purchased from Kabi Vitrum, Stockholm, Sweden.

[5] = target: T4, tissue plasminogen activator (t-PA) (Homo sapiens, UniProt P00750); test: Serine protease inhibition (Kass), t-PA
T4 construct: purchased American Diagnostica, Greenwich, Conn
T4 sequence (P00750 36-562): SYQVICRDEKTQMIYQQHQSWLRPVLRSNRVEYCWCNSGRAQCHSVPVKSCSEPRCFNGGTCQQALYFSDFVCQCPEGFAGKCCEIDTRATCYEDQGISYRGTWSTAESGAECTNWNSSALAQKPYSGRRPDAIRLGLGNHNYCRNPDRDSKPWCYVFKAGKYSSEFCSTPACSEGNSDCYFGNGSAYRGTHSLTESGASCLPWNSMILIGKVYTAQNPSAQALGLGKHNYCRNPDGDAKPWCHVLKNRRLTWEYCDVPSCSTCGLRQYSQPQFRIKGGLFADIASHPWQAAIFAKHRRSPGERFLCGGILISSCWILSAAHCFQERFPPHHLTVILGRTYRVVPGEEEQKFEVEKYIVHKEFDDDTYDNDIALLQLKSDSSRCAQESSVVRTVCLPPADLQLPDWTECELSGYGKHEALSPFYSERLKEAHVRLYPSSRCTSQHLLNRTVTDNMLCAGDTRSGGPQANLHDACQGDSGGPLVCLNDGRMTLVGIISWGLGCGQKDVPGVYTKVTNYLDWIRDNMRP
Procedure: as §1, §3

[6] = tested on: human plasma; test: Human plasma anticoagulation, thrombin time (TT)
Procedure: (§4) Fibrinogen is prepared from in-date ACD human blood as the fraction I-2 according to previous procedures and specifications. Smith, Biochem. […] Coagulation reagents ACTIN, Thromboplastin, and Human plasma are from Baxter Healthcare Corp., Dade Division, Miami, Fla. Bovine thrombin from Parke-Davis (Detroit, Mich.) is used for coagulation assays in plasma. Coagulation assay procedures are as previously described. […] A CoAScreener coagulation instrument (American LABor, Inc.) is used for all coagulation assay measurements. […] The compounds of formula I are added to human or animal plasma over a wide range of concentrations to determine prolongation effects on the APTT, PT, and TT assays. Linear extrapolations are performed to estimate the concentrations required to double the clotting time for each assay.

[7] = tested on: human plasma; test: Human plasma anticoagulation, activated partial thromboplastin time (APTT)
Procedure: as §4

[8] = tested on: human plasma; test: Human plasma anticoagulation, prothrombin time (PT)
Procedure: as §4

Structure (SMILES) | Kass Human Thrombin [1] [L/mol × 10^6] | Kass Xa [2] [L/mol × 10^6] | Kass Trypsin [3] [L/mol × 10^6] | Kass Plasmin [4] [L/mol × 10^6] | Kass t-PA [5] [L/mol × 10^6] | 2 × Clotting time TT [6] | 2 × Clotting time APTT [7] | 2 × Clotting time PT [8]
Cl.Cl.Cn1c(C(=O)N[C@](C)(Cc2ccccc2)C(=O)N2CCC[C@H]2C(=O)N[C@H](C=O)CCCNC(=N)N)cc2ccccc21 [Example 30, N-(1-methylindolyl-2-carbonyl)-D-phenylalanyl(α-methyl)-L-prolinyl-L -arginine aldehyde dihydrochloride] | 25 | 0.013 | 1.3 | 0.0083 | 0.0022 | 220 ng/mL | 2,800 ng/mL | 4,200 ng/mL
CCS(=O)(=O)NC1(C(=O)N2CCC[C@H]2C(=O)N[C@H](C=O)CCCNC(=N)N)CCCCC1.Cl [Example 31, 1-(ethylsulfonylamino)cyclohexoyl-L-prolinyl-L-arginine aldehyde hydrochloride] | 3.2 | 0.036 | 0.42 | 0.010 | 0.00034 | 300 ng/mL | 12,000 ng/mL | 11,000 ng/mL
Cl.Cn1c(C(=O)NC2(C(=O)N3CCC[C@H]3C(=O)N[C@H](C=O)CCCNC(=N)N)CCCCC2)cc2ccccc21 [Example 32, 1-(1-methylindolyl-2-carbonylamino)cyclohexoyl-L-prolinyl-L-arginine aldehyde hydrochloride] | 5.7 | 0.024 | 0.45 | 0.0071 | 0.0011 | 1,000 ng/mL | 11,000 ng/mL | 9,200 ng/mL
CCS(=O)(=O)N[C@@H](Cc1ccccc1)C(=O)N1CCC[C@@]1(C)C(=O)N[C@H](C=O)CCCNC(=N)N.Cl [Example 33, N-ethylsulfonylphenylalanyl(αmethyl)-L-prolinyl-L-arginine aldehyde hydrochloride] | 0.6 | 0.027 | 1.7 | 0.056 | 0.007 | 300 ng/mL | 5,400 ng/mL | 7,300 ng/mL
Cl.Cn1c(C(=O)NC(C)(Cc2ccccc2)C(=O)N2CCC[C@H]2C(=O)N[C@H](C=O)CCCNC(=N)N)cc2ccccc21 (stereo partly drawn) [Example 34, N-(1-methylindolyl-2carbonyl)phenylalanyl(αmethyl)-L-prolinyl-L-argi nine aldehyde hydrochloride] | 2.8 | 0.002 | 0.18 | 0.001 | 0.009 | 1,800 ng/mL | 21,000 ng/mL | 37,000 ng/mL
CCOC(=O)N[C@](CC)(Cc1ccccc1)C(=O)N1CCC[C@H]1C(=O)N[C@H](C=O)CCCNC(=N)N.Cl [Example 35, N-ethoxycarbonyl-D-phenylalanyl(αethyl)-L-prolinyl-L-arginine aldehyde hydrochloride] | 57 | 0.036 | 4.9 | 0.12 | 0.002 | 93 ng/mL | 3,200 ng/mL | 3,300 ng/mL
CCOC(=O)NC(CC)(Cc1ccccc1)C(=O)N1CCC[C@H]1C(=O)N[C@H](C=O)CCCNC(=N)N.Cl (stereo partly drawn) [Example 36, N-ethoxycarbonylphenylalanyl(αethyl)-L-prolinyl-L-arginine aldehyde hydrochloride] | 6.5 | 0.078 | 4.7 | 0.058 | 0.001 | 310 ng/mL | 5,000 ng/mL | 7,100 ng/mL
CCC[C@](Cc1ccccc1)(NC(=O)OCC)C(=O)N1CCC[C@H]1C(=O)N[C@H](C=O)CCCNC(=N)N.Cl [Example 37] | 47 | 0.030 | 4.9 | 0.12 | < 0.001 | 71 ng/mL | 4,100 ng/mL | 2,800 ng/mL
CCCC(Cc1ccccc1)(NC(=O)OCC)C(=O)N1CCC[C@H]1C(=O)N[C@H](C=O)CCCNC(=N)N.Cl (stereo partly drawn) [Example 38, N-ethoxycarbonylphenylalanyl(αn-propyl)-L-prolinyl-L-arginine aldehyde hydrochloride] | 38 | 0.077 | 7.3 | 0.074 | < 0.001 | 98 ng/mL | 2,700 ng/mL | 2,200 ng/mL
CCCC[C@](Cc1ccccc1)(NC(=O)OCC)C(=O)N1CCC[C@H]1C(=O)N[C@H](C=O)CCCNC(=N)N.Cl [Example 39, N-ethoxycarbonyl-D-phenylalanyl(αn-butyl)-L-prolinyl-L-arginine aldehyde hydrochloride] | 66 | 0.095 | 21 | 0.066 | < 0.001 | 160 ng/mL | 3,400 ng/mL | 3,000 ng/mL
CCCCC(Cc1ccccc1)(NC(=O)OCC)C(=O)N1CCC[C@H]1C(=O)N[C@H](C=O)CCCNC(=N)N (stereo partly drawn) [Example 40, N-ethoxycarbonylphenylalanyl(αn-butyl)-L-prolinyl-L-arginine aldehyde] | 47 | 0.088 | 15 | 0.13 | 0.001 | 91 ng/mL | 3,100 ng/mL | 2,400 ng/mL
